From article PMC6697720, “Saturation of acyl chains converts cardiolipin from an antagonist to an activator of Toll-like receptor-4” (Cellular and Molecular Life Sciences: CMLS, 2019)

Biological target: T1, murine TLR4, MD2, and CD14 (Mus musculus, UniProt Q9JHF9+Q9QUK6)
T1 construct: expressed in transfected cells; host or cells: HEK293 (ATCC CRL1573), transient transfection with jetPEI
T1 sequence (Q9QUK6 26-835): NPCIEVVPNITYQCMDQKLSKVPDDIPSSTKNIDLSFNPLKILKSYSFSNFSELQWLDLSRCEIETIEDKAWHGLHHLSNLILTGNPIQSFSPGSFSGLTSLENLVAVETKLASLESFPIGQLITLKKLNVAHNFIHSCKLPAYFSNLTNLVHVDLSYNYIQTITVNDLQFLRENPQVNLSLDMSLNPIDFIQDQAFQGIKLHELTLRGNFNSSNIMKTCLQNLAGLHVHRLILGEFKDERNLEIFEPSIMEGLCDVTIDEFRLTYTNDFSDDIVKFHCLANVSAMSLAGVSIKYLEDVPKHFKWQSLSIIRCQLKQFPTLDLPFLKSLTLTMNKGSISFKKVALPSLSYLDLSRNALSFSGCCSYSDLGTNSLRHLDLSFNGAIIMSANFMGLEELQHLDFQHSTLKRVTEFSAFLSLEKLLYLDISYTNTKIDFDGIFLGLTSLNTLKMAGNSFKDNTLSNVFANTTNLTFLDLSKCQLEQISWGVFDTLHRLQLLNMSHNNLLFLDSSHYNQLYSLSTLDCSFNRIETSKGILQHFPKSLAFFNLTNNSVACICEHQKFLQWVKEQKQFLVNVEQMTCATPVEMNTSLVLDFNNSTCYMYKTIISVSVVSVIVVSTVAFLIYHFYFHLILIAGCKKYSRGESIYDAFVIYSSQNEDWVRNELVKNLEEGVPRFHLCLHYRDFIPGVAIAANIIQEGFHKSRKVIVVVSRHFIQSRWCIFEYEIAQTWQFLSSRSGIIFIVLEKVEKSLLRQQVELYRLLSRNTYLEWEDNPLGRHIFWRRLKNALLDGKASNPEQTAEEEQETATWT
T1 sequence (Q9JHF9 19-160): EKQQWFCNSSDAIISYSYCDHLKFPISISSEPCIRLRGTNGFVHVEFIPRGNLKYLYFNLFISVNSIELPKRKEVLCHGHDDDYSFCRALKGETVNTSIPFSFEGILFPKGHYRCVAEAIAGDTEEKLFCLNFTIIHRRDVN
Experiment: NF-κB luciferase reporter activation by CLs in HEK293 cells transfected with murine TLR4, MD2 and CD14
Type: cell-based
Details: 6 h incubation
Protocol: Cells were seeded at 4 × 10^4 cells/mL in 96-well plates (200 μL/well) and transiently transfected 4 days later. Expression vectors containing an NF-κB transcription reporter vector-encoding firefly luciferase (10 ng/well pNF-κB-luc from Clontech), and a constitutively active reporter vector-encoding Renilla luciferase (5 ng/well phRG-TK; Promega), together with empty vector (pcDNA3.1 from Invitrogen Cat. N. V79020) and cDNA encoding human membrane CD14 (3 ng/well) and human or murine TLR4 and MD2 (3 ng/well) were mixed with jetPEI (Polyplus transfection Cat.N. 101-10N) and incubated with cells according to the manufacturer’s instructions.
After treatment supernatants were discarded, cells were washed with PBS and lysed with passive lysis buffer (Promega Cat.N. E1941). Luciferase and Renilla activity on cell lysates were quantified on a BioTek Synergy HT microplate reader using home-made luciferase reagent (20 mM Tricine, 2.67 mM MgSO4·7H2O, 0.265 mM (MgCO3)4Mg(OH)2·5H2O, 0.1 mM EDTA, 33.3 mM DTT, 530 μM ATP, 270 μM Acetyl Coenzyme A (Lithium salt), 470 μM luciferin (Biosynth), pH 7.8, diluted two times in water before use), or coelenterazine (Biosynth) dissolved in ethanol at 1 mg/mL and diluted 500 times in PBS before use as previously described. […]

**Q.** How did the “activation of murine TLR4 (NF-κB)” value turn out when `CCCCCCCCCCCCCC(=O)OC[C@H](COP(=O)(O)OCC(O)COP(=O)(O)OC[C@@H](COC(=O)CCCCCCCCCCCCC)OC(=O)CCCCCCCCCCCCC)OC(=O)CCCCCCCCCCCCC` (stereo partly shown) [C14:0 CL] was run?
**A.** agonist
